Several values for one entry are separate records, joined by “and”; a condition that tells them apart may be missing. Equal values may be shown once.
Experiments:
sciatic nerve [1] = test: Sciatic nerve block in rats: duration of motor block, weight-bearing test; type: in vivo; conditions: rat sciatic nerve injection 0.3 mL
Text: (§1) Sciatic Nerve Block and Neurobehavioral Testing. Animals were cared for in compliance with protocols approved by the Children's Hospital Animal Care and Use Committee, and the Massachusetts Institute of Technology Committee on Animal Care, which conformed to guidelines of the International Association for the Study of Pain. Adult male Sprague-Dawley rats (Charles River Laboratories) weighing 320-450 g were housed in groups, in a 6 AM to 6 PM light-dark cycle. Under brief isoflurane-oxygen anesthesia, a 23G needle was introduced postero-medial to the greater trochanter, until bone was contacted, and 0.3 mL of test solution was injected over the sciatic nerve. Thermal nociception was assessed by a modified hotplate test, and motor function via a weight-bearing test. […] Motor strength was assessed with a weight-bearing test. In brief, the animal was held over a digital balance such that it could bear weight with 1 hind paw at a time. The maximum weight that it could bear was recorded. The duration of motor blockade was defined as the time for weight bearing to return halfway to normal from maximal block. The halfway point for each rat was defined as […].

C2C12 Mouse myoblasts = test: Cytotoxicity in C2C12 myotubules; type: cell-based; conditions: C2C12 cells; for cytotoxicity compared with ropivacaine and bupivacaine (in words): FIG. 2 / Table 2; for IC50: Mus musculus, cytotoxicity, exposure up to 24 h
Description: (§2) C2C12 Mouse myoblasts [American Type Culture Collection (ATCC) CRL-1772] were cultured to proliferate in DMEM supplemented with 20% FBS and 100 Penicillin Streptomycin. Cell culture supplies were obtained from Invitrogen, unless otherwise noted. Cells were plated at 50,000 cells per mL in DMEM with 2% horse serum and 1% Penn Strep, and left to differentiate into myotubules for 10-14 days. During differentiation, media were exchanged every 2 to 3 days. Cell viability and proliferation were studied after exposures to drugs for up to 24 h. PC12 cells (ATCC, CRL-1721) originating from rat adrenal gland pheochromocytoma were grown in 24-well tissue culture dishes (CellBind; Corning) with F-12K (ATCC) supplemented with 12.5% horse serum (Gibco), 2.5% FBS (Gibco), and 1% Penn Strep (Sigma). For neuronal induction (PC12), cells were seeded at a relative low density of 5×10^4 cells/cm2 and 50 ng/mL NGF was added 24 h after seeding. Cell viability and proliferation were evaluated as for C2C12 cells. Experiments with PC12 cells were conducted for up to 24 hours.

PC12 cells = test: Cytotoxicity in PC12 cells; type: cell-based, rat; conditions: for cytotoxicity compared with ropivacaine and bupivacaine (in words): FIG. 1 / Table 2; for IC50: Rattus norvegicus, PC-12, cytotoxicity, exposure up to 24 h
Description: as §2

sciatic nerve [2] = test: Sciatic nerve block in rats: duration of thermal nociceptive (sensory) block, modified hotplate test; type: in vivo, rat; conditions: for Sensory:Motor Block Ratio: rat sciatic nerve block; for Block Duration (min) Sensory: rat sciatic nerve injection 0.3 mL
Text: as §1

hERG = hERG (Homo sapiens, UniProt Q12809); test: Whole-cell patch clamp, hERG current in stably transfected HEK cells; conditions: for hERG current amplitude, percent reduction: individual cell (raw data)
Description: (§3) These experiments were designed to examine the acute effects of 4Sa (ZYK2312-1), 4Sb (ZYK2312-2), and bupivacaine on hERG and peak Nav1.5 currents recorded from stably transfected HEK cells.
(§4) Experimental Methods: Currents were measured using the whole-cell variant of the patch clamp method. Glass pipettes were pulled from borosilicate glass by a horizontal puller (Sutter Instruments, USA). Pipette tip resistance was approximately 1 to 2 MΩ when filled with internal solutions. Series resistance was compensated electronically by approximately 60-80%. Bath temperature was measured by a thermistor placed near the cell under study. An Axopatch 1-B amplifier (Axon Instruments, Foster City, CA) was used for whole-cell voltage clamping. Creation of voltage clamp pulses and data acquisition was controlled by a computer running pClamp software (ver 9.2 Axon Instruments). After rupture of the cell membrane (entering whole-cell mode), current kinetics and amplitudes were allowed to stabilize as the cell was dialyzed with internal solution and paced every 5 seconds (typically 2 to 3 minutes). Peak INa was elicited using a pulse pattern with fixed amplitudes (conditioning prepulse: −120 mV for 50 ms; depolarizing test step to −30 mV for 20 ms). hERG current was elicited with a 500 ms pulse to +10 mV followed by a 500 ms pulse to −40 mV (holding potential=[…]). Cells were perfused at each testing concentration until a steady-state was reached.
(§5) Raw data and mean±SEM are given. Data are presented as percent reduction of current amplitude. […] Each cell served as its own control. A nonlinear curve-fitting routine was utilized to fit a three-parameter Hill equation to the results using MicroCal Origin, version 6.0 software. The equation is:
(§6) [formula] where Vmax=100 and k and n are unconstrained variables.

peak Nav1.5 = peak Nav1.5 (Homo sapiens, UniProt Q14524); test: Whole-cell patch clamp, peak Nav1.5 current in stably transfected HEK cells
Description: as §3, §4, §5, §6

Chain of peak Nav1.5 (Q14524 whole entry): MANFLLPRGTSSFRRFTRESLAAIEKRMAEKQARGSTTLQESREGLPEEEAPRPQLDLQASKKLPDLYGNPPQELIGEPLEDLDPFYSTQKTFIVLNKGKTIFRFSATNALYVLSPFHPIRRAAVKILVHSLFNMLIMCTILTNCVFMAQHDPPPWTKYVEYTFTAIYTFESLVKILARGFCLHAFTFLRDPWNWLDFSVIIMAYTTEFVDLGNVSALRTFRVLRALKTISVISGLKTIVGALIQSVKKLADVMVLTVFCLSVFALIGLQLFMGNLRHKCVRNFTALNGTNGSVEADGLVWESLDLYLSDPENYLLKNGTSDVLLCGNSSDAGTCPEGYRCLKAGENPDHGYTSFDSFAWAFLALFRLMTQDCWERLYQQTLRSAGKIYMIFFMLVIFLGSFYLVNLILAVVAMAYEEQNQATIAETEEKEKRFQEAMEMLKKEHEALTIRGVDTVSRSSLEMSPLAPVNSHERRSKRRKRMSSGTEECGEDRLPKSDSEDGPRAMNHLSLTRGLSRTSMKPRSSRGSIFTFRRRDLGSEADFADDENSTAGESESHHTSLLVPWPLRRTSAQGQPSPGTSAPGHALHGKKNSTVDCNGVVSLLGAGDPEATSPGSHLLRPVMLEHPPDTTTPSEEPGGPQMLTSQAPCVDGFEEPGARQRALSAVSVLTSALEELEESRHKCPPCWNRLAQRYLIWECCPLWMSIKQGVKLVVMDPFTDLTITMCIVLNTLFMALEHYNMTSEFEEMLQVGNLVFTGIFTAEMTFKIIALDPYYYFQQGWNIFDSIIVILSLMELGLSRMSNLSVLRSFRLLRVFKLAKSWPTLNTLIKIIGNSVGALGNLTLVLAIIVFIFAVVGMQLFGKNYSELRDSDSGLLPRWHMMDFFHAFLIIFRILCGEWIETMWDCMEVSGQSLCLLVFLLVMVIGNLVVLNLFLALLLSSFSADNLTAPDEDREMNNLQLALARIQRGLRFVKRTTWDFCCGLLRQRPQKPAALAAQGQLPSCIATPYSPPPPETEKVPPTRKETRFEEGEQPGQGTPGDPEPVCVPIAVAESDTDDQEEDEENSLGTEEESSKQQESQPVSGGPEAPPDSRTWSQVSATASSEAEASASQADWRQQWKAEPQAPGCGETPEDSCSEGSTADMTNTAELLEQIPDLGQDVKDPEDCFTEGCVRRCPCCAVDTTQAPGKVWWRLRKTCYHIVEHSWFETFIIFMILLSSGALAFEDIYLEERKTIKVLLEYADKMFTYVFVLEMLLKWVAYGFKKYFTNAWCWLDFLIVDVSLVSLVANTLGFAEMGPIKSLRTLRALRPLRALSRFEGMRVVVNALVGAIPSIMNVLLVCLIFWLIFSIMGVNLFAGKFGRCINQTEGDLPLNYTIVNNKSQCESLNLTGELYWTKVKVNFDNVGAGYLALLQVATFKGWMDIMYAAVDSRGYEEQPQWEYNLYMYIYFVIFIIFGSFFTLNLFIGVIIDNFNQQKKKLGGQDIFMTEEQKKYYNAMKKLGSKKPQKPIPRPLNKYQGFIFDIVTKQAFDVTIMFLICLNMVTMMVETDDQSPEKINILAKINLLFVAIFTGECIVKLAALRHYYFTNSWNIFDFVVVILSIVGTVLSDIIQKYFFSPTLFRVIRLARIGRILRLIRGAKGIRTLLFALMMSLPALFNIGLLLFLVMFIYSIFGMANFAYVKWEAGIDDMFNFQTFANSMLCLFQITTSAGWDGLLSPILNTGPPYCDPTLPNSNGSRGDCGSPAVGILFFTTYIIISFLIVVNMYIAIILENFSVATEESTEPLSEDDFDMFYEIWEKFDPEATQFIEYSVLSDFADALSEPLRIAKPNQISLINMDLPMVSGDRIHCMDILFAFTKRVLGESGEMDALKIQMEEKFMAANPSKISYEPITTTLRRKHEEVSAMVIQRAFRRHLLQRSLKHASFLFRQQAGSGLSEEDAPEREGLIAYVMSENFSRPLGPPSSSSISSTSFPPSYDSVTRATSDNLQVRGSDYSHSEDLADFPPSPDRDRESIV
Chain of hERG (Q12809 whole entry): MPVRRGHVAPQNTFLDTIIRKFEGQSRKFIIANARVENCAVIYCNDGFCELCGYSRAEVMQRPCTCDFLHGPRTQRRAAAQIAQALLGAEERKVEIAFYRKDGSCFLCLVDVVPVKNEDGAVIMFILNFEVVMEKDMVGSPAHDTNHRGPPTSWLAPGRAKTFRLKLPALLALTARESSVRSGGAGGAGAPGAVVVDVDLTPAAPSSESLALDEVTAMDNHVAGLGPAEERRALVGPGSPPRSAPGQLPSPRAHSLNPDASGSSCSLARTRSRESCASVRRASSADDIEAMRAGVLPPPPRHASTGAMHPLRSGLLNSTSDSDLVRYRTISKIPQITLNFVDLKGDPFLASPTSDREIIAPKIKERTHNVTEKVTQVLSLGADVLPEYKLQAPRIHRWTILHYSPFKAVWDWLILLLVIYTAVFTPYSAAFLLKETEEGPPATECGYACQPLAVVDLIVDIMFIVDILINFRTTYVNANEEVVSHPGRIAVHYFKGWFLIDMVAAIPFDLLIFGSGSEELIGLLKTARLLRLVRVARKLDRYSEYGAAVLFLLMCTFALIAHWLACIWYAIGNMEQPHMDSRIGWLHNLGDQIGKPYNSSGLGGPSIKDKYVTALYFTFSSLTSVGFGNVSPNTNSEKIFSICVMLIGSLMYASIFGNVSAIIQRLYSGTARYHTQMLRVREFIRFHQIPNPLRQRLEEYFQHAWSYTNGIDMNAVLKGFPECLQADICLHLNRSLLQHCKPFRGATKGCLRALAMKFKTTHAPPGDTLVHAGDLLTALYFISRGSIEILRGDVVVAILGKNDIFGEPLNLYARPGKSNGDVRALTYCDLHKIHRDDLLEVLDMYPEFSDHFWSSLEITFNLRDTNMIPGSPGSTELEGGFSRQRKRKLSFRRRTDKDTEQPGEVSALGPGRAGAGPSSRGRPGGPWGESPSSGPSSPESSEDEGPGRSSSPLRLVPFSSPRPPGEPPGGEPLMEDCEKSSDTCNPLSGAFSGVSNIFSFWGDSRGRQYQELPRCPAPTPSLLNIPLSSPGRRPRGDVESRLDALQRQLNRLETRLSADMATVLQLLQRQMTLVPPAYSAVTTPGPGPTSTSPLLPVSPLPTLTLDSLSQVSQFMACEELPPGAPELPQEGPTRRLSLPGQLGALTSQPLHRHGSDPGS

CCCC[N@+]1(CC(=O)OC)CCCC[C@H]1C(=O)Nc1c(C)cccc1C (racemic) [2a + 2b, 1-Butyl-2-((2,6-dimethylphenyl)carbamoyl)-1-(2-methoxy-2-oxoethyl)piperidin-1-ium bromide]
Block Duration (min) Motor (sciatic nerve [1]; dose conc 5 mM): 0 min | Block Duration (min) Motor (sciatic nerve [1]; dose conc 7.5 mM): 30 ± 15 min | Block Duration (min) Motor (sciatic nerve [1]; dose conc 10 mM): 50 ± 23 min | cytotoxicity compared with ropivacaine and bupivacaine (in words) (C2C12 Mouse myoblasts): significantly less cytotoxic than ropivacaine and bupivacaine | cytotoxicity compared with ropivacaine and bupivacaine (in words) (PC12 cells): significantly less cytotoxic than ropivacaine and bupivacaine | Sensory:Motor Block Ratio (sciatic nerve [2]; dose conc 5 mM): ∞ | Block Duration (min) Sensory (sciatic nerve [2]; dose conc 5 mM): 30 ± 12 min | Block Duration (min) Sensory (sciatic nerve [2]; dose conc 7.5 mM): 120 ± 34 min | Block Duration (min) Sensory (sciatic nerve [2]; dose conc 10 mM): 150 ± 51 min

CCC[N@+]1(CC(=O)OC)CCCC[C@H]1C(=O)Nc1c(C)cccc1C.[Br-] (racemic) [4Sa + 4Sb, 2-((2,6-Dimethylphenyl)carbamoyl)-1-(2-methoxy-2-oxoethyl)-1-propylpiperidin-1-ium bromide]
Block Duration (min) Motor (sciatic nerve [1]; dose conc 5 mM): 0 min | Block Duration (min) Motor (sciatic nerve [1]; dose conc 7.5 mM): 10 ± 10 min | Block Duration (min) Motor (sciatic nerve [1]; dose conc 10 mM): 78 ± 24 min | Block Duration (min) Motor (sciatic nerve [1]; dose conc 15 mM): 69 ± 20 min | cytotoxicity compared with ropivacaine and bupivacaine (in words) (C2C12 Mouse myoblasts): significantly less cytotoxic than ropivacaine and bupivacaine | cytotoxicity compared with ropivacaine and bupivacaine (in words) (PC12 cells): significantly less cytotoxic than ropivacaine and bupivacaine | Sensory:Motor Block Ratio (sciatic nerve [2]; dose conc 5 mM): ∞ | Block Duration (min) Sensory (sciatic nerve [2]; dose conc 5 mM): 34 ± 13 min | Block Duration (min) Sensory (sciatic nerve [2]; dose conc 7.5 mM): 108 ± 27 min | Block Duration (min) Sensory (sciatic nerve [2]; dose conc 10 mM): 220 ± 40 min | Block Duration (min) Sensory (sciatic nerve [2]; dose conc 15 mM): 254 ± 48 min

COC(=O)C[N@@+]1(C)CCCC[C@H]1C(=O)Nc1c(C)cccc1C (racemic) [Compound 3a, 2-((2,6-Dimethylphenyl)carbamoyl)-1-(2-methoxy-2-oxoethyl)-1-methylpiperidin-1-ium bromide]
Block Duration (min) Motor (sciatic nerve [1]; dose conc 10 mM): 0 min | Block Duration (min) Sensory (sciatic nerve [2]; dose conc 10 mM): 0 min

COC(=O)C[N@@+]1(C)CCCC[C@@H]1C(=O)Nc1c(C)cccc1C (racemic) [Compound 3b, 2-((2,6-Dimethylphenyl)carbamoyl)-1-(2-methoxy-2-oxoethyl)-1-methylpiperidin-1-ium bromide]
Block Duration (min) Motor (sciatic nerve [1]; dose conc 10 mM): 300 ± 60 min | Block Duration (min) Sensory (sciatic nerve [2]; dose conc 10 mM): 450 ± 60 min

CCCN1CCCC[C@H]1C(=O)Nc1c(C)cccc1C (single isomer, unassigned) [(S)-Ropivacaine, reference compound]
Block Duration (min) Motor (sciatic nerve [1]; dose conc 10 mM): 150 ± 38 min | Block Duration (min) Motor (sciatic nerve [1]; dose conc 15 mM): 210 ± 28 min | Block Duration (min) Sensory (sciatic nerve [2]; dose conc 10 mM): 150 ± 35 min | Block Duration (min) Sensory (sciatic nerve [2]; dose conc 15 mM): 215 ± 31 min

CCCC(=O)OC[N+]1(CCC)CCCC[C@H]1C(=O)Nc1c(C)cccc1C.[Cl-] (stereo in doubt) [Compound 11S, 1-((Butyryloxy)methyl)-2-((2,6-dimethylphenyl)carbamoyl)-1-propylpiperidin-1-ium chloride]
Block Duration (min) Motor (sciatic nerve [1]; dose conc 10 mM): 90 ± 44 min | cytotoxicity compared with ropivacaine and bupivacaine (in words) (C2C12 Mouse myoblasts): significantly less cytotoxic than ropivacaine and bupivacaine | cytotoxicity compared with ropivacaine and bupivacaine (in words) (PC12 cells): significantly less cytotoxic than ropivacaine and bupivacaine | Block Duration (min) Sensory (sciatic nerve [2]; dose conc 10 mM): 135 ± 56 min

CCCCN1CCCCC1C(=O)Nc1c(C)cccc1C (centres unmarked) [Bupivacaine, bupivacaine, reference compound]
Block Duration (min) Motor (sciatic nerve [1]; dose conc 10 mM): 140 ± 15 min | Block Duration (min) Motor (sciatic nerve [1]; dose conc 15 mM): 222 ± 30 min | IC50 (C2C12 Mouse myoblasts): 720 µM | IC50 (PC12 cells): 870 µM | IC50 (hERG): 16.4 µM | hERG current amplitude, percent reduction (hERG; 1 μM): 19.8% and 9.1% and 10.5% | hERG current amplitude, percent reduction, mean ± SE (hERG; 1 μM): 13.1 ± 3.4% | hERG current amplitude, percent reduction (hERG; 10 μM): 43.0% and 45.0% and 42.1% | hERG current amplitude, percent reduction, mean ± SE (hERG; 10 μM): 43.4 ± 0.9% | hERG current amplitude, percent reduction (hERG; 100 μM): 76.3% and 70.7% and 78.9% | hERG current amplitude, percent reduction, mean ± SE (hERG; 100 μM): 75.3 ± 2.4% | Block Duration (min) Sensory (sciatic nerve [2]; dose conc 10 mM): 129 ± 21 min | Block Duration (min) Sensory (sciatic nerve [2]; dose conc 15 mM): 215 ± 31 min | IC50 (peak Nav1.5): 9.8 µM | peak Nav1.5 current amplitude, percent reduction, mean ± SE (peak Nav1.5; 1 μM): 13.5 ± 3.1% | peak Nav1.5 current amplitude, percent reduction, mean ± SE (peak Nav1.5; 10 μM): 49.0 ± 1.0% | peak Nav1.5 current amplitude, percent reduction, mean ± SE (peak Nav1.5; 100 μM): 90.7 ± 1.5% | inhibition at 10 µM (peak Nav1.5; HEK293, read-out: peak Nav1.5 current amplitude, percent reduction, 10 μM, individual cell (raw data)): 50.8% | inhibition at 100 µM (peak Nav1.5; HEK293, read-out: peak Nav1.5 current amplitude, percent reduction, 100 μM, individual cell (raw data)): 89.2%

Br.CC[N+](CC)(CC(=O)Nc1c(C)cccc1C)CC(=O)OC [Compound 1, 2-((2,6-Dimethylphenyl)amino)-N,N-diethyl-N-(2-methoxy-2-oxoethyl)-2-oxoethan-1-aminium bromide]
cytotoxicity compared with ropivacaine and bupivacaine (in words) (C2C12 Mouse myoblasts): significantly less cytotoxic than ropivacaine and bupivacaine | cytotoxicity compared with ropivacaine and bupivacaine (in words) (PC12 cells): significantly less cytotoxic than ropivacaine and bupivacaine

CCCC[N+]1(COC(C)=O)CCCCC1C(=O)Nc1c(C)cccc1C.[Br-] (centres unmarked) [Compound 9, 1-(Acetoxymethyl)-1-butyl-2-((2,6-dimethylphenyl)carbamoyl)piperidin-1-ium bromide]
Block Duration (min) Motor (sciatic nerve [1]; dose conc 5 mM): 25 ± 19 min | Block Duration (min) Motor (sciatic nerve [1]; dose conc 10 mM): 75 ± 39 min | Block Duration (min) Motor (sciatic nerve [1]; dose conc 15 mM): 85 ± 36 min | Block Duration (min) Sensory (sciatic nerve [2]; dose conc 5 mM): 65 ± 23 min | Block Duration (min) Sensory (sciatic nerve [2]; dose conc 10 mM): 120 ± 53 min | Block Duration (min) Sensory (sciatic nerve [2]; dose conc 15 mM): 125 ± 51 min

CCC[N+]1(COC(C)=O)CCCC[C@H]1C(=O)Nc1c(C)cccc1C.[Br-] (some centres unmarked) [Compound 10S, 1-(Acetoxymethyl)-2-((2,6-dimethylphenyl)carbamoyl)-1-propylpiperidin-1-ium bromide]
Block Duration (min) Motor (sciatic nerve [1]; dose conc 5 mM): 15 ± 15 min | Block Duration (min) Motor (sciatic nerve [1]; dose conc 10 mM): 65 ± 34 min | cytotoxicity compared with ropivacaine and bupivacaine (in words) (C2C12 Mouse myoblasts): significantly less cytotoxic than ropivacaine and bupivacaine | cytotoxicity compared with ropivacaine and bupivacaine (in words) (PC12 cells): significantly less cytotoxic than ropivacaine and bupivacaine | Block Duration (min) Sensory (sciatic nerve [2]; dose conc 5 mM): 55 ± 23 min | Block Duration (min) Sensory (sciatic nerve [2]; dose conc 10 mM): 105 ± 53 min

CCC[N@@+]1(CC(=O)NC)CCCC[C@H]1C(=O)Nc1c(C)cccc1C [Compound 26Sa, 2-((2,6-dimethylphenyl)carbamoyl)-1-(2-(methylamino)-2-oxoethyl)-1-propyl-1-piperidin-2-ylium bromide]
Block Duration (min) Motor (sciatic nerve [1]; dose conc 10 mM): 140 min | cytotoxicity compared with ropivacaine and bupivacaine (in words) (C2C12 Mouse myoblasts): significantly less cytotoxic than ropivacaine and bupivacaine | IC50 (C2C12 Mouse myoblasts): 1000 µM | cytotoxicity compared with ropivacaine and bupivacaine (in words) (PC12 cells): significantly less cytotoxic than ropivacaine and bupivacaine | IC50 (PC12 cells): 1200 µM | Block Duration (min) Sensory (sciatic nerve [2]; dose conc 10 mM): 180 min

Reference: US12454509B2, “Local anesthetics with selective-sensory nerve blockade” (Children's Medical Center Corporation, priority 2019, dated 2025)
